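Briefly, cells in 96-well plates were exposed to five compound concentrations for 48 h, and endpoints were estimated by linear interpolation. GI50 is the concentration that inhibits growth by half.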 Calls of active or inactive are those of the source. Rule as the data show it: active = GI50 up to about 1.1 µM and inactive = higher.
Columns and labels:
Experiment in all cases: NCI anticancer screen, dose series, 48 h
PC-3 = test system: PC-3
A549 = test system: A549
UACC-62 = test system: UACC-62
HCT-116 = test system: HCT-116
NCI/ADR-RES = test system: NCI/ADR-RES
SK-OV-3 = test system: SK-OV-3
SNB-75 = test system: SNB-75
COLO 205 = test system: COLO 205
HL-60 = test system: HL-60
SNB-19 = test system: SNB-19
MDA-N = test system: MDA-N
NCI-H23 = test system: NCI-H23
UACC-257 = test system: UACC-257
HOP-62 = test system: HOP-62
SR = test system: SR
SF-539 = test system: SF-539
T47D = test system: T47D
SW-620 = test system: SW-620
OVCAR-8 = test system: OVCAR-8
K562 = test system: K562

Structure (SMILES) | GI50 (PC-3) | GI50 (A549) | GI50 (UACC-62) | GI50 (HCT-116) | GI50 (NCI/ADR-RES) | GI50 (SK-OV-3) | GI50 (SNB-75) | GI50 (COLO 205) | GI50 (HL-60) | GI50 (SNB-19) | GI50 (MDA-N) | GI50 (NCI-H23) | GI50 (UACC-257) | GI50 (HOP-62) | GI50 (SR) | GI50 (SF-539) | GI50 (T47D) | GI50 (SW-620) | GI50 (OVCAR-8) | GI50 (K562)
CCOC(=O)c1nc2cc(F)c(F)cc2nc1NCc1cc(OC)c(OC)c(OC)c1 | > 100 µM (inactive) | > 100 µM (inactive) | 67.1 µM (inactive) | > 100 µM (inactive) | > 100 µM (inactive) | > 100 µM (inactive) | 16.5 µM (inactive) | > 100 µM (inactive) | > 100 µM (inactive) | 42.5 µM (inactive) | > 100 µM (inactive) | > 100 µM (inactive) | > 100 µM (inactive) | 38.5 µM (inactive) | > 100 µM (inactive) | > 100 µM (inactive) | > 100 µM (inactive) | > 100 µM (inactive) | > 100 µM (inactive) | 
O=C(O)/C=C/c1c2ccc(=O)c(O)c-2oc2c(O)c(O)ccc12 | > 100 µM (inactive) | 32.3 µM (inactive) | 50.1 µM (inactive) | 17 µM (inactive) | 65.3 µM (inactive) | 98.4 µM (inactive) | 48 µM (inactive) | > 100 µM (inactive) | 82.2 µM (inactive) | > 100 µM (inactive) | 16.1 µM (inactive) | > 100 µM (inactive) | > 100 µM (inactive) | 23.4 µM (inactive) | 31.8 µM (inactive) |  | > 100 µM (inactive) | 20.7 µM (inactive) | 40.1 µM (inactive) | 21.7 µM (inactive)
Cc1cc2c(O)nc(N)nc2nc1C | > 100 µM (inactive) | > 100 µM (inactive) | > 100 µM (inactive) | > 100 µM (inactive) | > 100 µM (inactive) | > 100 µM (inactive) | > 100 µM (inactive) | > 100 µM (inactive) | > 100 µM (inactive) | > 100 µM (inactive) | > 100 µM (inactive) | > 100 µM (inactive) | > 100 µM (inactive) | > 100 µM (inactive) | > 100 µM (inactive) |  | > 100 µM (inactive) | > 100 µM (inactive) | > 100 µM (inactive) | > 100 µM (inactive)
C=CC1CN(C(=O)OCC)N(C(=O)OCC)C1CCc1ccccc1 (stereo not given) | 79.1 µM (inactive) | 57.8 µM (inactive) | > 100 µM (inactive) | 67.1 µM (inactive) | 85.1 µM (inactive) | > 100 µM (inactive) | 68.9 µM (inactive) | 71.6 µM (inactive) | 35.6 µM (inactive) | > 100 µM (inactive) | > 100 µM (inactive) | 61.9 µM (inactive) | > 100 µM (inactive) | > 100 µM (inactive) | 65.9 µM (inactive) |  | 33.3 µM (inactive) |  | > 100 µM (inactive) | 50.8 µM (inactive)
CCc1c(-c2ccc(OC)cc2)c(=O)oc2cc(O)ccc12 | 24.7 µM (inactive) | 27.3 µM (inactive) | 19.4 µM (inactive) | 36.5 µM (inactive) | 22.1 µM (inactive) |  | 73.3 µM (inactive) | 28.2 µM (inactive) | 16.7 µM (inactive) | 56.1 µM (inactive) | 28.1 µM (inactive) | 49.1 µM (inactive) | 25.9 µM (inactive) | 54 µM (inactive) | 16.7 µM (inactive) | 44.1 µM (inactive) | 30.6 µM (inactive) | 51.3 µM (inactive) | 49.1 µM (inactive) | 29.8 µM (inactive)
COc1cc2c3cc1Oc1c(OC)c(OC)cc4c1C(Cc1ccc(O)c(c1)-c1cc(ccc1OC)CC3N(C)CC2)N(C)CC4 (stereo not given) | 20.4 µM (inactive) | 24.5 µM (inactive) | 23.9 µM (inactive) | 12.3 µM (inactive) | 25.9 µM (inactive) | 72.8 µM (inactive) | 18.7 µM (inactive) | 25.1 µM (inactive) | 2.66 µM (inactive) | 22.3 µM (inactive) | 13.6 µM (inactive) | 21.4 µM (inactive) | 21 µM (inactive) |  | 0.659 µM (active) | 7.08 µM (inactive) | 24.2 µM (inactive) | 22.3 µM (inactive) | 17.4 µM (inactive) | 6 µM (inactive)
NS(=O)(=O)c1nc(S(=O)(=O)O)c2[nH]cnc2n1 | > 100 µM (inactive) | > 100 µM (inactive) | > 100 µM (inactive) | > 100 µM (inactive) | > 100 µM (inactive) | > 100 µM (inactive) | > 100 µM (inactive) | > 100 µM (inactive) |  | > 100 µM (inactive) | > 100 µM (inactive) | > 100 µM (inactive) | > 100 µM (inactive) | > 100 µM (inactive) | > 100 µM (inactive) | > 100 µM (inactive) | > 100 µM (inactive) | > 100 µM (inactive) | > 100 µM (inactive) | > 100 µM (inactive)
O=S(=O)(c1ccccc1)n1c(C(O)c2ccncc2)cc2ccccc21 (stereo not given) | 35.9 µM (inactive) | 31.3 µM (inactive) | 26.5 µM (inactive) | 43.1 µM (inactive) | 35.2 µM (inactive) | 44.4 µM (inactive) | 34 µM (inactive) | 39.7 µM (inactive) |  | 50 µM (inactive) | 39.1 µM (inactive) | 44.7 µM (inactive) | 10.7 µM (inactive) | > 100 µM (inactive) | 38.5 µM (inactive) | > 100 µM (inactive) | 36 µM (inactive) | 32 µM (inactive) | 50.6 µM (inactive) | 31.6 µM (inactive)
O=C1Cc2c(-c3ccccc3)cc(-c3ccc4ccccc4c3)nc2-c2ccccc2N1 | 15.7 µM (inactive) | 14.9 µM (inactive) | 10.7 µM (inactive) | 8.45 µM (inactive) | 13.2 µM (inactive) | 6.64 µM (inactive) | 0.307 µM (active) | 31.9 µM (inactive) |  | 3.06 µM (inactive) | 8.53 µM (inactive) | 6.4 µM (inactive) | 22.3 µM (inactive) | 7.52 µM (inactive) | 39.3 µM (inactive) | 4.7 µM (inactive) | 18 µM (inactive) | 29.2 µM (inactive) | 1.46 µM (inactive) | 2.39 µM (inactive)
NCC(=O)Nc1ccccc1 | > 100 µM (inactive) | > 100 µM (inactive) | > 100 µM (inactive) | > 100 µM (inactive) | > 100 µM (inactive) |  | > 100 µM (inactive) |  |  | > 100 µM (inactive) | > 100 µM (inactive) | > 100 µM (inactive) | > 100 µM (inactive) | > 100 µM (inactive) | > 100 µM (inactive) |  | > 100 µM (inactive) | > 100 µM (inactive) | > 100 µM (inactive) | 60.5 µM (inactive)
COC(=O)c1c(O)ccc2c1c1c(n2Cc2ccccc2)C(=O)c2ccccc2C1=O | 13.7 µM (inactive) | 7.76 µM (inactive) |  | 14.2 µM (inactive) | 12.6 µM (inactive) | 16.1 µM (inactive) | 15.6 µM (inactive) | 1.8 µM (inactive) | 18.3 µM (inactive) | 14.9 µM (inactive) | 20.1 µM (inactive) | 15.3 µM (inactive) | 17.6 µM (inactive) | 23.6 µM (inactive) | 15.6 µM (inactive) | 15.6 µM (inactive) | 12.9 µM (inactive) | 19.2 µM (inactive) | 12.2 µM (inactive) | 11.8 µM (inactive)
O=C1c2ccccc2C(=O)c2c(NC(=O)c3ccc4c5c(ncnc35)-c3ccccc3C4=O)cccc21 | > 100 µM (inactive) | > 100 µM (inactive) | > 100 µM (inactive) | > 100 µM (inactive) | > 100 µM (inactive) | 23.2 µM (inactive) | 18.7 µM (inactive) | > 100 µM (inactive) |  | 33.9 µM (inactive) | > 100 µM (inactive) | 33.4 µM (inactive) | > 100 µM (inactive) | 14.7 µM (inactive) | 91.4 µM (inactive) | 52.4 µM (inactive) | > 100 µM (inactive) | > 100 µM (inactive) | > 100 µM (inactive) | > 100 µM (inactive)
O=C1NC(N2CCOCC2)=N/C1=C\c1cccs1 | > 100 µM (inactive) | > 100 µM (inactive) | > 100 µM (inactive) | > 100 µM (inactive) | > 100 µM (inactive) | > 100 µM (inactive) | 30.2 µM (inactive) | > 100 µM (inactive) | > 100 µM (inactive) | > 100 µM (inactive) | > 100 µM (inactive) | > 100 µM (inactive) | > 100 µM (inactive) | > 100 µM (inactive) | > 100 µM (inactive) | > 100 µM (inactive) | > 100 µM (inactive) | > 100 µM (inactive) | > 100 µM (inactive) | 
CC(/C=N/N=C1NCCCCN1)=N\N=C1NCCCCN1 | 87.7 µM (inactive) | > 100 µM (inactive) | > 100 µM (inactive) | 86.3 µM (inactive) | > 100 µM (inactive) | > 100 µM (inactive) | > 100 µM (inactive) | 22.3 µM (inactive) |  | > 100 µM (inactive) | 52.2 µM (inactive) | > 100 µM (inactive) | 47.6 µM (inactive) | > 100 µM (inactive) | 73.3 µM (inactive) | > 100 µM (inactive) | > 100 µM (inactive) | > 100 µM (inactive) | > 100 µM (inactive) | 37.1 µM (inactive)
O=C1CC2CC(CC3(CO3)C2)C1F (stereo not given) | > 100 µM (inactive) | > 100 µM (inactive) | > 100 µM (inactive) | > 100 µM (inactive) | > 100 µM (inactive) | > 100 µM (inactive) | 48.2 µM (inactive) | > 100 µM (inactive) | > 100 µM (inactive) | > 100 µM (inactive) | > 100 µM (inactive) | > 100 µM (inactive) | > 100 µM (inactive) | > 100 µM (inactive) | > 100 µM (inactive) |  | > 100 µM (inactive) |  | > 100 µM (inactive) | > 100 µM (inactive)

— ChEMBL document CHEMBL1201862, “PubChem BioAssay data set” (2004)
